{"source": "paper PMC11788587", "about": "“Validating Low‐Dose Iohexol as a Marker for Glomerular Filtration Rate by In Vitro and In Vivo Studies” (Clinical and Translational Science, 2025)", "key": {"[1]": {"molecular_target": "T1, hOCT2 (Homo sapiens, UniProt O15244)", "T1 construct": "expressed in transfected cells; host or cells: HEK-293 (293) cells, pEBTetD plasmid, doxycycline-induced", "T1 sequence (O15244 1-555)": "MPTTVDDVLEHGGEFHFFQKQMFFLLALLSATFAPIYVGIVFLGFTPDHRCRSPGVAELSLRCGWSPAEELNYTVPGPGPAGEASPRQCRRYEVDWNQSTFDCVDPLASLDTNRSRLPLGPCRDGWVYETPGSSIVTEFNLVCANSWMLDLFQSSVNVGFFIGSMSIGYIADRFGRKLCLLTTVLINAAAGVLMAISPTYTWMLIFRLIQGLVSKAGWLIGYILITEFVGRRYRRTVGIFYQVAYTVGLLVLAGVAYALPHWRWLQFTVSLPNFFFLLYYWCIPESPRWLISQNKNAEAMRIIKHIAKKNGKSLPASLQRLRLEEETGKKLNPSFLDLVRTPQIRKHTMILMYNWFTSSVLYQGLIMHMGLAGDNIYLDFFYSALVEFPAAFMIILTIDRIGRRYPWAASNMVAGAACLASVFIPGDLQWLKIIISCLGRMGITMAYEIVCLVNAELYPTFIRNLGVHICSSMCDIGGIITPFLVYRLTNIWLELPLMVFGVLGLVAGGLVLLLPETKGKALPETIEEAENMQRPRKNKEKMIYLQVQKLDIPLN", "assay": "Inhibition of hOCT2-mediated metformin uptake, stably transfected 293 cells", "format": "cell-based", "conditions": "substrate 5 µM metformin, median (95% CI)", "text": "We characterized the inhibitory potential of iohexol on major drug transporters recommended by regulatory agencies, which were previously assessed in a clinical transporter phenotyping cocktail study. These transporters include hOAT1, hOAT3, hOCT1, hOCT2, hMATE1, hMATE2K, human organic anion transporter polypeptides (hOATP)1B1, hOATP1B3, and human multidrug resistance protein (hMDR)1. Additionally, we investigated whether iohexol is a substrate for any of the renal transporters among these, including hOAT1/3, hOCT1/2, and hMATE1/2K. Cell‐based uptake assays were used to assess the activities of hOAT1/3, hOCT1/2, hMATE1/2K, and hOATP1B1/1B3. Inside‐out membrane vesicle uptake assays were used to evaluate the activity of hMDR1.\nTo determine the maximal inhibitory potential of iohexol, intracellular accumulation of a standard substrate was measured with and without the clinically relevant highest concentrations of iohexol. Control inhibitors were tested in each experiment.\nIn all subsequent in vitro studies, control experiments were conducted to validate the results. These included positive controls for substrates and inhibitors, as well as cells either without transporter expression or transfected with an empty vector, and control vesicles. Each condition, including cells or vesicles with the transporter and their respective controls, was analyzed in at least three replicates. For detailed information on materials, methods, and data analysis techniques used, refer to the Supporting Information. […]\nR version 4.2.1 (R Foundation for Statistical Computing, Vienna, Austria) was used for statistical evaluations and data visualization. The data analysis approach for the in vitro study was detailed by Hsin CH et al..^1 In brief, for transport assays, the initial uptake rate was calculated by normalizing the substrate concentration to both the protein concentration and the incubation time for each dish or well. The transporter-mediated uptake rate (net uptake) was determined by performing an element-wise subtraction of uptake rates from different conditions. […]"}, "[2]": {"assay": "Clinical trial in healthy volunteers, population pharmacokinetic analysis;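 further: population pharmacokinetic parameters fitted to plasma and urine data, interindividual variability modelled exponentially, inter-occasion variability tied additively, sensitivity analysis compares alternative models omitting data from one subject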", "format": "in vivo, human", "description": "After establishing a reasonable structural model, the impact of dose‐related effects was assessed as a categorical covariate on PK parameters through forward and backward selection processes. Model improvement was evaluated using the change in the objective function value (ΔOFV), with significance levels of 0.05 (ΔOFV ≤ −3.84) and 0.01 (ΔOFV ≤ −6.63). The stability and performance of the final model were evaluated graphically and statistically, using goodness‐of‐fit plots, nonparametric bootstrap analysis [32], and the visual predictive check (VPC) technique [33], as described earlier [28].\nInterindividual variability was estimated for CLR, V1, V2, and V3 using an exponential model. Inter‐occasion variability for CLR, V1, and Q2 was linked to inter‐individual variability through an additive model. The residual variability in plasma and urine data was best described by proportional error models.\nTo evaluate its impact on the final parameter estimates, we used two approaches: (i) conducting a sensitivity analysis by comparing parameter estimates across three models—the final model, a model excluding early post-dose plasma samples from the subject, and a model excluding all data from this period for the subject."}, "[3]": {"conditions": "Model 1: excluding samples within 45 minutes after the test dose for the subject with delayed absorption"}, "[4]": {"conditions": "Model 2: excluding all data from the subject with delayed absorption when receiving the test dose"}, "[5]": {"conditions": "final model, entire dataset, n=12"}, "[6]": {"conditions": "final model, nonparametric bootstrap"}, "[7]": {"conditions": "one subject, test dose period with suspected paravenous administration, model with absorption phase"}}, "note": "Like-named read-outs stand apart in the source and are kept apart here."}
{"smiles": "CC(=O)N(CC(O)CO)c1c(I)c(C(=O)NCC(O)CO)c(I)c(C(=O)NCC(O)CO)c1I", "note": "(stereo not drawn) [iohexol]", "values": [{"measurement": "Inhibitory effect (% reduction of specific activity)", "setting": "[1]; 20 mM iohexol", "value": "no notable inhibitory effects"}, {"measurement": "inhibition at 1000 µM", "setting": "[1]; HEK293, 1 mM iohexol, read-out: Inhibitory effect (% reduction of specific activity)", "value": -13, "unit": "%"}, {"measurement": "inhibition at 20000 µM", "setting": "[1]; HEK293, 20 mM iohexol, read-out: Inhibitory effect (% reduction of specific activity)", "value": -23, "unit": "%"}, {"measurement": "Effect of dose level (categorical covariate) on PK parameters", "setting": "[2]; 259 mg vs 3235 mg", "value": "did not differ significantly"}, {"measurement": "Inter-individual variability CLR estimate", "setting": "[2]; Model 1", "value": 14.4, "unit": "CV%"}, {"measurement": "Inter-individual variability V1 estimate", "setting": "[2]; Model 1", "value": 16.8, "unit": "CV%"}, {"measurement": "Inter-individual variability V2 estimate", "setting": "[2]; Model 1", "value": 15.1, "unit": "CV%"}, {"measurement": "Inter-individual variability V3 estimate", "setting": "[2]; Model 1", "value": 15.0, "unit": "CV%"}, {"measurement": "Inter-occasion variability CLR estimate", "setting": "[2]; Model 1", "value": 3.69, "unit": "CV%"}, {"measurement": "Inter-occasion variability Q2 estimate", "setting": "[2]; Model 1", "value": 23.7, "unit": "CV%"}, {"measurement": "Inter-occasion variability V1 estimate", "setting": "[2]; Model 1", "value": 4.82, "unit": "CV%"}, {"measurement": "Q1 estimate", "setting": "[2]; [3]", "value": 0.219, "unit": "L/h"}, {"measurement": "Q2 estimate", "setting": "[2]; [3]", "value": 5.53, "unit": "L/h"}, {"measurement": "V1 estimate", "setting": "[2]; [3]", "value": 8.91, "unit": "L"}, {"measurement": "V2 estimate", "setting": "[2]; [3]", "value": 1.54, "unit": "L"}, {"measurement": "V3 estimate", "setting": "[2]; [3]", "value": 4.30, "unit": "L"}, {"measurement": "Inter-individual variability CLR estimate", "setting": "[2]; Model 2", "value": 14.2, "unit": "CV%"}, {"measurement": "Inter-individual variability V1 estimate", "setting": "[2]; Model 2", "value": 17.2, "unit": "CV%"}, {"measurement": "Inter-individual variability V2 estimate", "setting": "[2]; Model 2", "value": 13.8, "unit": "CV%"}, {"measurement": "Inter-individual variability V3 estimate", "setting": "[2]; Model 2", "value": 13.5, "unit": "CV%"}, {"measurement": "Inter-occasion variability CLR estimate", "setting": "[2]; Model 2", "value": 2.33, "unit": "CV%"}, {"measurement": "Inter-occasion variability Q2 estimate", "setting": "[2]; Model 2", "value": 17.1, "unit": "CV%"}, {"measurement": "Inter-occasion variability V1 estimate", "setting": "[2]; Model 2", "value": 3.87, "unit": "CV%"}, {"measurement": "Q1 estimate", "setting": "[2]; [4]", "value": 0.227, "unit": "L/h"}, {"measurement": "Q2 estimate", "setting": "[2]; [4]", "value": 5.38, "unit": "L/h"}, {"measurement": "V1 estimate", "setting": "[2]; [4]", "value": 8.90, "unit": "L"}, {"measurement": "V2 estimate", "setting": "[2]; [4]", "value": 1.57, "unit": "L"}, {"measurement": "V3 estimate", "setting": "[2]; [4]", "value": 4.30, "unit": "L"}, {"measurement": "Interindividual variability CLR, point estimate", "setting": "[2]; final model, entire dataset", "value": 14.0, "unit": "CV%"}, {"measurement": "Interindividual variability V1, point estimate", "setting": "[2]; final model, entire dataset", "value": 16.6, "unit": "CV%"}, {"measurement": "Interindividual variability V2, point estimate", "setting": "[2]; final model, entire dataset", "value": 14.0, "unit": "CV%"}, {"measurement": "Interindividual variability V3, point estimate", "setting": "[2]; final model, entire dataset", "value": 15.5, "unit": "CV%"}, {"measurement": "Interoccasion variability CLR, point estimate", "setting": "[2]; final model, entire dataset", "value": 2.51, "unit": "CV%"}, {"measurement": "Interoccasion variability Q2, point estimate", "setting": "[2]; final model, entire dataset", "value": 29.2, "unit": "CV%"}, {"measurement": "Interoccasion variability V1, point estimate", "setting": "[2]; final model, entire dataset", "value": 6.23, "unit": "CV%"}, {"measurement": "Q1 point estimate", "setting": "[2]; [5]", "value": 0.221, "unit": "L/h"}, {"measurement": "Q2 point estimate", "setting": "[2]; [5]", "value": 5.84, "unit": "L/h"}, {"measurement": "V1 point estimate", "setting": "[2]; [5]", "value": 9.06, "unit": "L"}, {"measurement": "V2 point estimate", "setting": "[2]; [5]", "value": 1.56, "unit": "L"}, {"measurement": "V3 point estimate", "setting": "[2]; [5]", "value": 4.34, "unit": "L"}, {"measurement": "Interindividual variability CLR, bootstrap median (95% CI)", "setting": "[2]; [6]", "value": "13.5 (5.05–20.1) CV%"}, {"measurement": "Interindividual variability V1, bootstrap median (95% CI)", "setting": "[2]; [6]", "value": "15.5 (6.88–23.1) CV%"}, {"measurement": "Interindividual variability V2, bootstrap median (95% CI)", "setting": "[2]; [6]", "value": "13.4 (7.81–20.7) CV%"}, {"measurement": "Interindividual variability V3, bootstrap median (95% CI)", "setting": "[2]; [6]", "value": "13.7 (5.57–19.2) CV%"}, {"measurement": "Interoccasion variability CLR, bootstrap median (95% CI)", "setting": "[2]; [6]", "value": "2.44 (0.900–3.87) CV%"}, {"measurement": "Interoccasion variability Q2, bootstrap median (95% CI)", "setting": "[2]; [6]", "value": "28.7 (6.99–65.8) CV%"}, {"measurement": "Interoccasion variability V1, bootstrap median (95% CI)", "setting": "[2]; [6]", "value": "6.06 (1.55–10.2) CV%"}, {"measurement": "Q1 bootstrap median (95% CI)", "setting": "[2]; [6]", "value": "0.219 (0.164–0.313) L/h"}, {"measurement": "Q2 bootstrap median (95% CI)", "setting": "[2]; [6]", "value": "5.76 (4.11–8.23) L/h"}, {"measurement": "V1 bootstrap median (95% CI)", "setting": "[2]; [6]", "value": "9.06 (8.18–10.1) L"}, {"measurement": "V2 bootstrap median (95% CI)", "setting": "[2]; [6]", "value": "1.57 (1.36–1.87) L"}, {"measurement": "V3 bootstrap median (95% CI)", "setting": "[2]; [6]", "value": "4.34 (3.81–4.99) L"}, {"measurement": "CL renal", "setting": "[2]; human, plasma and urine, intravenous, Model 1: excluding samples within 45 minutes after the test dose for the subject with delayed absorption, read-out: CLR estimate (converted)", "value": 90.8, "unit": "mL/min"}, {"measurement": "CL renal", "setting": "[2]; human, plasma and urine, intravenous, Model 2: excluding all data from the subject with delayed absorption when receiving the test dose, read-out: CLR estimate (converted)", "value": 91.5, "unit": "mL/min"}, {"measurement": "CL renal", "setting": "[2]; human, plasma and urine, intravenous, final model, entire dataset, n=12, read-out: CLR point estimate (converted)", "value": 91.7, "unit": "mL/min"}, {"measurement": "CL renal", "setting": "[2]; human, plasma and urine, intravenous, final model, nonparametric bootstrap, read-out: CLR bootstrap median (95% CI) (converted)", "value": 91.7, "unit": "mL/min"}, {"measurement": "CL renal", "setting": "[2]; human, plasma and urine, intravenous, final model, read-out: Individual empirical Bayesian estimates of CLR, median (range) (converted)", "value": 87.5, "unit": "mL/min"}, {"measurement": "Vd", "setting": "[2]; human, plasma and urine, intravenous, final model, read-out: Individual empirical Bayesian estimates of volume of distribution (sum of V1, V2, and V3), median (range)", "value": 15.1, "unit": "L"}, {"measurement": "First-order absorption rate constant", "setting": "[2]; [7]", "value": 0.876, "unit": "h⁻¹"}, {"measurement": "Relative bioavailability", "setting": "[2]; [7]", "value": 93.6, "unit": "%"}]}
